In US11046709B2, “Fused 1,4-diazepines as BET bromodomain inhibitors” (THE REGENTS OF THE UNIVERSITY OF MICHIGAN, priority 2017, dated 2021):
Where two headings read alike, the source gives them in different places.

What was measured:
[1] = Plasma exposure after oral gavage in mice, LC-MS/MS; type: in vivo; details: mouse, in vivo, po, 25 mg/kg
Method: For a number of representative compounds in Table 5, their plasma exposures with oral administration in mice via oral gavage were determined by LC-MS/MS, with the data shown in Table 9.

MOLM-13 = test: Cell growth inhibition, 4-day proliferation assay, MOLM-13; type: cell-based; details: Homo sapiens
MDA-MB-231 = test: Cell growth inhibition, 4-day proliferation assay, MDA-MB-231; type: cell-based; details: Homo sapiens
Procedure, shortened: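 Cells seeded at 3,000-10,000/well, treated with serially diluted compounds 4 days at 37 °C, 5% CO2. Viability by WST-8 (10% v/v, 1-2 h, A450); readings normalized to DMSO-treated cells, IC50 by four-parameter nonlinear regression.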

recombinant BRD4 BD2 = biological target: T1, recombinant BRD4 BD2 (Homo sapiens, UniProt O60885); test: Competitive fluorescence-polarization (FP) binding assay, BRD4 BD2
T1 construct: for recombinant BRD4 BD1 and BRD4 BD2 proteins
Method: (§1) Fluorescence Polarization (FP) competitive binding studies were carried out using a FAM labeled fluorescent probe, see, e.g., Cpd. No. 350 of US 2014/0256706, to determine binding affinities of representative Compounds of the Disclosure for recombinant BRD4 BD1 and BRD4 BD2 proteins. Equilibrium dissociation constants (Kd) values of the fluorescent probe to BRD4 BD1 and BD2 proteins were determined from protein saturation experiments by monitoring the total fluorescence polarization of mixtures composed with the fluorescent probe at a fixed concentration and proteins with increasing concentrations up to full saturation. Serial dilutions of testing proteins were mixed with the fluorescent probe to a final volume of 200 μl in the assay buffer (100 mM phosphate buffer, pH=6.5, 0.01% Triton X-100 (Sigma, 282103) being added right before assays). Final fluorescent probe concentration was 1.5 nM for both proteins. Plates were incubated at room temperature for 30 minutes with gentle shaking to assure equilibrium. FP values in millipolarization units (mP) were measured using the Infinite M-1000 plate reader (Tecan U.S., Research Triangle Park, N.C.) in Microfluor 1 96-well, black, round-bottom plates (Thermo Scientific, Waltham, Mass.) at an excitation wavelength of 485 nm and an emission wavelength of 530 nm. Kd values of the fluorescent probe, which were calculated by fitting the sigmoidal dose-dependent FP increases as a function of protein concentrations using Graphpad Prism 6.0 software (Graphpad Software, San Diego, Calif.), are 5.5 and 3.0 nM to BDR4 BD1 and 2, respectively.
(§2) The IC50 and Ki values of compounds were determined in a competitive binding experiment. See US 2014/0256706. Mixtures of 10 μl of the tested compounds in assay buffer with 40% Ethylene Glycol and 190 μl of preincubated protein/probe complex solution in the assay buffer (100 mM potassium phosphate, pH 6.5, 0.01% Triton X-100) were added into assay plates which were incubated at room temperature for 30 minutes with gentle shaking. Final concentrations of proteins were 10 and 6 nM in assays for BRD4 BD1 and BD2, respectively. Final probe concentration is 1.5 nM in both assays. Negative controls containing protein/probe complex only (equivalent to 0% inhibition), and positive controls containing only free probes (equivalent to 100% inhibition), were included in each assay plate. FP values were measured as described above. IC50 values were determined by nonlinear regression fitting of the competition curves. Instead of being calculated from IC50 values as described before. Ki values of competitive inhibitors were obtained directly by nonlinear regression fitting as well, based upon the Kd values of the probe to different proteins, and concentrations of the proteins and probes in the competitive assays (US 2014/0256706; Wang, FEBS Lett. 360:111 (1995); Zhang et al., Analytical Biochemistry, 331:138 (2004)).
(§3) Representative compounds in Table 5 were evaluated for their binding affinities to BRD4 BD1 and BD2 proteins using the Competitive Fluorescence-Polarization (FP) Assays described in Example 6, with the data included in Table 6.

recombinant BRD4 BD1 = biological target: T2, recombinant BRD4 BD1 (Homo sapiens, UniProt O60885); test: Competitive fluorescence-polarization (FP) binding assay, BRD4 BD1
T2 construct: for recombinant BRD4 BD1 and BRD4 BD2 proteins
Method: as §1, §2, §3

[2] = MOLM-13, WST-8 assay, Table 7, read-out: Cell growth inhibition (IC50 (nM)) MOLM-13
[3] = MDA-MB-231, WST-8 assay, Table 7, read-out: Cell growth inhibition (IC50 (nM)) MDA-MB-231
[4] = MOLM-13, 96 h, read-out: Cell IC50 (nM) MOLM13

Row | Structure (SMILES) | concentration at 1 h [1] [ng/mL] | concentration at 3 h [1] [ng/mL] | concentration at 6 h [1] [ng/mL] | IC50 (MOLM-13; [2]) [nM] | IC50 (MDA-MB-231; [3]) [nM] | further results
1 | Cc1c(C#CC2CCOCC2)sc2c1C(c1ccc(Cl)cc1)=N[C@@H](CC(N)=O)c1nnc(C)n1-2 [Compound 152, (S)-2-(4-(4-chlorophenyl)-3,9-dimethyl-2-((tetrahydro-2H-pyran-4-yl)ethynyl)-6H-thieno[3,2-f][1,2,4]triazolo[4,3-a][1,4]diazepin-6-yl)acetamide] | 1120 | 472 | 231 | 30 |  | 
2 | Cc1c(C#CC2CCOCC2)sc2c1C(c1ccc(Cl)cc1)=N[C@@H](CC(=O)N1CC(F)(F)C1)c1nnc(C)n1-2 [Compound 156, (S)-2-(4-(4-chlorophenyl)-3,9-dimethyl-2-((tetrahydro-2H-pyran-4-yl)ethynyl)-6H-thieno[3,2-f][1,2,4]triazolo[4,3-a][1,4]diazepin-6-yl)-1-(3,3-difluoroazetidin-1-yl)ethan-1-one] | 805 | 473 | 226 | 36.1 |  | 
3 | CCNC(=O)C[C@@H]1N=C(c2ccc(Cl)cc2)c2c(sc(C#Cc3cnn(C)c3)c2C)-n2c(C)nnc21 [Compound 167, (S)-2-(4-(4-chlorophenyl)-3,9-dimethyl-2-((1-methyl-1H-pyrazol-4-yl)ethynyl)-6H-thieno[3,2-f][1,2,4]triazolo[4,3-a][1,4]diazepin-6-yl)-N-ethylacetamide] | 12 | < 1 | < 1 | 26.7 | 129 ± 40 | 
4 | Cc1c(C#CC2CCOCC2)sc2c1C(c1ccc(Cl)cc1)=N[C@@H](CC(=O)Nc1ccc(O)cc1)c1nnc(C)n1-2 [Compound 155, (S)-2-(4-(4-chlorophenyl)-3,9-dimethyl-2-((tetrahydro-2H-pyran-4-yl)ethynyl)-6H-thieno[3,2-f][1,2,4]triazolo[4,3-a][1,4]diazepin-6-yl)-N-(4-hydroxyphenyl)acetamide] | 832 | 127 | 42 | 69.3 |  | 
5 | Cc1c(C#CC2CCOCC2)sc2c1C(c1ccc(Cl)cc1)=N[C@@H](CC(=O)N1CCOCC1)c1nnc(C)n1-2 [Compound 154, (S)-2-(4-(4-chlorophenyl)-3,9-dimethyl-2-((tetrahydro-2H-pyran-4-yl)ethynyl)-6H-thieno[3,2-f][1,2,4]triazolo[4,3-a][1,4]diazepin-6-yl)-1-morpholinoethan-1-one] | 1040 | 372 | 220 | 38.8 |  | 
6 | Cc1nnc(C[C@@H]2N=C(c3ccc(Cl)cc3)c3c(sc(C#Cc4ccccn4)c3C)-n3c(C)nnc32)o1 [Compound 129, (S)-2-((4-(4-chlorophenyl)-3,9-dimethyl-2-(pyridin-2-ylethynyl)-6H-thieno[3,2-f][1,2,4]triazolo[4,3-a][1,4]diazepin-6-yl)methyl)-5-methyl-1,3,4-oxadiazole] |  |  |  |  | 6 | IC50 (recombinant BRD4 BD2; competitive FP, Table 6, read-out: IC50 as determinined in FP assays BRD4 BD2): 27.6 nM; IC50 (recombinant BRD4 BD1; competitive FP, Table 6, read-out: IC50 as determinined in FP assays BRD4 BD1): 9.4 nM
7 | C#Cc1sc2c(c1C)C(c1ccc(Cl)cc1)=NCc1nnc(C)n1-2 [compound 19, 4-(4-chlorophenyl)-2-ethynyl-3,9-dimethyl-6H-thieno[3,2-f][1,2,4]triazolo[4,3-a][1,4]diazepine] |  |  |  |  |  | IC50 (MOLM-13; [4]): 2120 nM; IC50 (recombinant BRD4 BD2): 227 nM; IC50 (recombinant BRD4 BD1): 191 nM
8 | Cc1c(C#Cc2cnn(CCC(N)=O)c2)sc2c1C(c1ccc(Cl)cc1)=N[C@@H](C)c1nnc(C)n1-2 [Compound 103, (S)-3-(4-((4-(4-chlorophenyl)-3,6,9-trimethyl-6H-thieno[3,2-f][1,2,4]triazolo[4,3-a][1,4]diazepin-2-yl)ethynyl)-1H-pyrazol-1-yl)propanamide] |  |  |  |  |  | IC50 (MDA-MB-231; MDA-MB-231, read-out: Cell growth inhibition (IC50 (nM)) MDA-MB-231): 60 ± 20 nM; IC50 (recombinant BRD4 BD2): 15.4 nM; IC50 (recombinant BRD4 BD1): 4 nM
9 | CCNC(=O)C[C@@H]1N=C(c2ccc(Cl)cc2)c2c(sc(C#Cc3cncn3C)c2C)-n2c(C)nnc21 [Compound 169, (S)-2-(4-(4-chlorophenyl)-3,9-dimethyl-2-((1-methyl-1H-imidazol-5-yl)ethynyl)-6H-thieno[3,2-f][1,2,4]triazolo[4,3-a][1,4]diazepin-6-yl)-N-ethylacetamide] | 611 | 29 | 5 | 63.9 | 203 ± 57 | 
10 | Cc1nnc(C[C@@H]2N=C(c3ccc(Cl)cc3)c3c(sc(C#CC4CCOCC4)c3C)-n3c(C)nnc32)s1 [Compound 151, (S)-4-(4-chlorophenyl)-3,9-dimethyl-6-((5-methyl-1,3,4-thiadiazol-2-yl)methyl)-2-((tetrahydro-2H-pyran-4-yl)ethynyl)-6H-thieno[3,2-f][1,2,4]triazolo[4,3-a][1,4]diazepine] | 451 | 299 | 115 | 81.6 |  | 
11 | Cc1c(C#Cc2cnn(C)c2)sc2c1C(c1ccc(Cl)cc1)=N[C@@H](CC(N)=O)c1nnc(C)n1-2 [Compound 166, (S)-2-(4-(4-chlorophenyl)-3,9-dimethyl-2-((1-methyl-1H-pyrazol-4-yl)ethynyl)-6H-thieno[3,2-f][1,2,4]triazolo[4,3-a][1,4]diazepin-6-yl)acetamide] | 55 | 30 | < 1 | 28.9 | 214 ± 42.2 | 
12 | C#Cc1sc2c(c1C)C(c1ccc(Cl)cc1)=N[C@@H](C)c1nnc(C)n1-2 [compound 20, (S)-4-(4-chlorophenyl)-2-ethynyl-3,6,9-trimethyl-6H-thieno[3,2-f][1,2,4]triazolo[4,3-a][1,4]diazepine] |  |  |  |  |  | IC50 (MOLM-13; [4]): 16 nM; IC50 (recombinant BRD4 BD2): 41.1 nM; IC50 (recombinant BRD4 BD1): 103 nM
13 | Cc1c(C#Cc2cncn2C)sc2c1C(c1ccc(Cl)cc1)=N[C@@H](CC(N)=O)c1nnc(C)n1-2 [Compound 168, (S)-2-(4-(4-chlorophenyl)-3,9-dimethyl-2-((1-methyl-1H-imidazol-5-yl)ethynyl)-6H-thieno[3,2-f][1,2,4]triazolo[4,3-a][1,4]diazepin-6-yl)acetamide] | 80 | 22 | 20 | 145 | 716 ± 162 | 
14 | Cc1c(C#CCN(C)C)sc2c1C(c1ccc(Cl)cc1)=N[C@@H](C)c1nnc(C)n1-2 [Cpd. No. 16, (S)-3-(4-(4-chlorophenyl)-3,6,9-trimethyl-6H-thieno[3,2-f][1,2,4]triazolo[4,3-a][1,4]diazepin-2-yl)-N,N-dimethylprop-2-yn-1-amine] |  |  |  |  |  | IC50 (MDA-MB-231; MDA-MB-231, 96 h, read-out: Cell IC50 (nM) MDA-MB-231): 40.9 nM; IC50 (MOLM-13; [4]): 27.9 nM; IC50 (recombinant BRD4 BD2): 58.9 nM
15 | Cc1nnc(C[C@@H]2N=C(c3ccc(Cl)cc3)c3c(sc(C#CC4(C)COC4)c3C)-n3c(C)nnc32)o1 [Compound 149, (S)-2-((4-(4-chlorophenyl)-3,9-dimethyl-2-((3-methyloxetan-3-yl)ethynyl)-6H-thieno[3,2-f][1,2,4]triazolo[4,3-a][1,4]diazepin-6-yl)methyl)-5-methyl-1,3,4-oxadiazole] | 13000 | 12800 | 6640 |  |  | 
